Our source for the TGI and GI50 values is PubChem BioAssay (NCI).

Molecules are shown by their SMILES.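 Growth conditions: 96-well plates. Treatment: test compound, 48 hours, 5 concentrations. Analysis: linear interpolation between bracketing concentrations; unreached endpoints set to highest concentration. GI50 is the concentration that inhibits growth by half. TGI is the concentration that stops growth completely.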 A value given as a limit tells only on which side of the number the result lay.

Some test systems named below: NCI-H460 lung; UACC-257 melanoma; OVCAR-5 ovarian; BT-549 breast; 786-0 renal; MCF7 breast; UACC-62 melanoma; SF-539 CNS; KM12 colon; MDA-MB-231 breast; A498 renal.
Test in all cases: NCI-60 cell line screen, 48 h

On to `Cc1ccc(C(=O)NN=C(/N=N/c2cccc(C)c2)c2ccc(N(C)C)cc2)cc1`, for which the TGI in the assay on NCI-H460 lung, with UACC-257 melanoma, with OVCAR-5 ovarian, with BT-549 breast, in the assay on 786-0 renal and with MCF7 breast was over 100 µM in each case. In addition, the TGI with UACC-62 melanoma, in the assay on SF-539 CNS, in the assay with KM12 colon and in the assay with MDA-MB-231 breast was over 100 µM each time.
In the case of `CC1Cc2c(cc(N)nc2Br)NC1=O` (stereo not drawn), the TGI in the assay on NCI-H460 lung, with UACC-257 melanoma, in the assay with OVCAR-5 ovarian, in the assay with BT-549 breast, in the assay with 786-0 renal and with MCF7 breast was over 100 µM throughout. For the same molecule, the TGI in the assay on UACC-62 melanoma, with SF-539 CNS, in the assay with KM12 colon and in the assay on MDA-MB-231 breast was over 100 µM each time.
In the case of `Cc1cn([C@@H]2C[C@](C)(CO)N(C)O2)c(=O)[nH]c1=O`, the TGI in the assay on NCI-H460 lung, in the assay with UACC-257 melanoma, in the assay on OVCAR-5 ovarian, with BT-549 breast, in the assay with 786-0 renal and in the assay with MCF7 breast was over 100 µM throughout. Besides, the TGI in the assay on A498 renal, with UACC-62 melanoma, in the assay on KM12 colon and with MDA-MB-231 breast was over 100 µM each time.
On to `O=C(c1ccccc1)c1ccc2nc(-c3c(Cl)c(Cl)c(Cl)c(Cl)c3C(=O)Nc3ccco3)[nH]c2c1`, for which the TGI was over 100 µM with NCI-H460 lung; over 100 µM in the assay with UACC-257 melanoma; over 100 µM in the assay on OVCAR-5 ovarian; 74 µM in the assay with BT-549 breast; over 100 µM with 786-0 renal; over 100 µM in the assay with MCF7 breast. The TGI is 92.2 µM in the assay with A498 renal, over 100 µM in the assay on UACC-62 melanoma, over 100 µM in the assay with KM12 colon and over 100 µM with MDA-MB-231 breast.
`C/C=C\C(CC(=O)NCCc1c[nH]c2ccccc12)CC(=O)OC` (stereo not drawn): the TGI in the assay on NCI-H460 lung, with UACC-257 melanoma, in the assay on OVCAR-5 ovarian, with BT-549 breast, in the assay on 786-0 renal and in the assay on MCF7 breast was over 100 µM each time. The TGI with A498 renal, with UACC-62 melanoma, in the assay with KM12 colon and with MDA-MB-231 breast was over 100 µM in each case.
Consider `OCC1c2ccccc2-n2nc(-c3ccccc3)c(O)c21` (stereo not drawn), for which the TGI is 77.2 µM with NCI-H460 lung; over 100 µM in the assay with UACC-257 melanoma; over 100 µM in the assay on OVCAR-5 ovarian; 85.1 µM in the assay on BT-549 breast; 32.1 µM in the assay with 786-0 renal; 36.7 µM in the assay with MCF7 breast. Moreover, the TGI in the assay on UACC-62 melanoma is 67.7 µM; in the assay on SF-539 CNS it was over 100 µM; in the assay with KM12 colon, 46.1 µM; in the assay on MDA-MB-231 breast it was over 100 µM.
As for `CCn1c(O)c(C(=O)NC(C)c2ccc([N+](=O)[O-])cc2)c(=O)n(CC)c1=S` (stereo not drawn), the TGI came to 9.36 µM with NCI-H460 lung; 16.6 µM with UACC-257 melanoma; 6.77 µM in the assay with OVCAR-5 ovarian; 8.8 µM with BT-549 breast; 11.7 µM in the assay with 786-0 renal; 9.19 µM in the assay with MCF7 breast. For the same molecule, the TGI in the assay with UACC-62 melanoma came to 5.8 µM; with SF-539 CNS, 13.4 µM; with KM12 colon, 5.58 µM; in the assay with MDA-MB-231 breast, 10.8 µM.
Take `CN(c1ccc(Cl)cc1)S(=O)(=O)c1ccccc1`: the TGI in the assay with NCI-H460 lung, in the assay on UACC-257 melanoma, in the assay with OVCAR-5 ovarian, in the assay with BT-549 breast, with 786-0 renal and in the assay on MCF7 breast was over 100 µM in each case. Moreover, the TGI in the assay with UACC-62 melanoma, with SF-539 CNS, in the assay with KM12 colon and in the assay with MDA-MB-231 breast was over 100 µM throughout.
Take `O=C1/C(=C/c2cccs2)N=C(c2ccccc2)N1c1nc2ccccc2s1`: the TGI in the assay with NCI-H460 lung, in the assay with UACC-257 melanoma, with OVCAR-5 ovarian, in the assay on BT-549 breast, with 786-0 renal and with MCF7 breast was over 100 µM throughout. Besides, the TGI in the assay with A498 renal, with SF-539 CNS, with KM12 colon and with MDA-MB-231 breast was over 100 µM throughout.
Regarding `O=C1NC(=S)N/C1=C\c1ccc(Sc2ccccc2C(=O)O)s1`, the TGI in the assay with NCI-H460 lung, with UACC-257 melanoma, in the assay on OVCAR-5 ovarian, in the assay with BT-549 breast, with 786-0 renal and in the assay on MCF7 breast was over 100 µM in each case. Moreover, the TGI in the assay on A498 renal, with UACC-62 melanoma, with KM12 colon and with MDA-MB-231 breast was over 100 µM in each case.
Turning to `COc1ccc(-c2cc(-c3ccc(OC)c(OC)c3)nc(SCCCC(=O)NO)n2)cc1`, the GI50 was 0.842 µM with NCI-H460 lung; 1.53 µM in the assay on OVCAR-5 ovarian; 3.8 µM in the assay with BT-549 breast; 2.75 µM with MCF7 breast; 1.39 µM with A498 renal; 1.14 µM in the assay with UACC-62 melanoma. Also, the GI50 in the assay with SF-539 CNS is 1.31 µM; in the assay with KM12 colon, 2.23 µM; in the assay on MDA-MB-231 breast, 1.94 µM. Besides, the TGI with NCI-H460 lung is 5.24 µM; in the assay with OVCAR-5 ovarian it was 6.25 µM; in the assay on BT-549 breast it was over 100 µM; with MCF7 breast, 10.2 µM; with A498 renal it was 3.06 µM; in the assay on UACC-62 melanoma, 2.68 µM. The TGI is 3.48 µM with SF-539 CNS, over 100 µM with KM12 colon and 8.78 µM with MDA-MB-231 breast.
Consider `S=c1oc(CCCCCCCCc2nn(CNc3ccc(Cl)cc3)c(=S)o2)nn1CNc1ccc(Cl)cc1`, for which the TGI in the assay on NCI-H460 lung, in the assay on UACC-257 melanoma, in the assay with OVCAR-5 ovarian, with BT-549 breast, in the assay on 786-0 renal and in the assay on MCF7 breast was over 100 µM in each case. For the same molecule, the TGI in the assay on A498 renal, with UACC-62 melanoma, in the assay with KM12 colon and with MDA-MB-231 breast was over 100 µM in each case.
As for `Cc1ccc(S(=O)(=O)CC2CCCn3c2c(C#N)c2ccccc23)cc1` (stereo not drawn), the TGI in the assay with UACC-257 melanoma, in the assay with OVCAR-5 ovarian, in the assay with BT-549 breast, in the assay on 786-0 renal, in the assay with MCF7 breast and with A498 renal was over 100 µM each time. Further, the TGI with UACC-62 melanoma, with SF-539 CNS, in the assay on KM12 colon and in the assay with MDA-MB-231 breast was over 100 µM throughout.
